# PubChem BioAssay AID2696 (Johns Hopkins Ion Channel Center, 2010)
# “And” between values parts separate entries of the source, which are not always exact repeats. Equal entries are not always repeated.
# Target: Short transient receptor potential channel 6 (Mus musculus) (UniProt Q61143)
# Experiment: TRPC6 inhibitor potency, dose response, cell-based, mouse TRPC6, HEK293, membrane potential (AID 2696)
# Settings: TRPC6-expressing HEK293 cells, membrane potential dye fluorescence, acetylcholine-stimulated
# Short transient receptor potential channel 6 (Mus musculus), sequence (Q61143 whole entry, looked up): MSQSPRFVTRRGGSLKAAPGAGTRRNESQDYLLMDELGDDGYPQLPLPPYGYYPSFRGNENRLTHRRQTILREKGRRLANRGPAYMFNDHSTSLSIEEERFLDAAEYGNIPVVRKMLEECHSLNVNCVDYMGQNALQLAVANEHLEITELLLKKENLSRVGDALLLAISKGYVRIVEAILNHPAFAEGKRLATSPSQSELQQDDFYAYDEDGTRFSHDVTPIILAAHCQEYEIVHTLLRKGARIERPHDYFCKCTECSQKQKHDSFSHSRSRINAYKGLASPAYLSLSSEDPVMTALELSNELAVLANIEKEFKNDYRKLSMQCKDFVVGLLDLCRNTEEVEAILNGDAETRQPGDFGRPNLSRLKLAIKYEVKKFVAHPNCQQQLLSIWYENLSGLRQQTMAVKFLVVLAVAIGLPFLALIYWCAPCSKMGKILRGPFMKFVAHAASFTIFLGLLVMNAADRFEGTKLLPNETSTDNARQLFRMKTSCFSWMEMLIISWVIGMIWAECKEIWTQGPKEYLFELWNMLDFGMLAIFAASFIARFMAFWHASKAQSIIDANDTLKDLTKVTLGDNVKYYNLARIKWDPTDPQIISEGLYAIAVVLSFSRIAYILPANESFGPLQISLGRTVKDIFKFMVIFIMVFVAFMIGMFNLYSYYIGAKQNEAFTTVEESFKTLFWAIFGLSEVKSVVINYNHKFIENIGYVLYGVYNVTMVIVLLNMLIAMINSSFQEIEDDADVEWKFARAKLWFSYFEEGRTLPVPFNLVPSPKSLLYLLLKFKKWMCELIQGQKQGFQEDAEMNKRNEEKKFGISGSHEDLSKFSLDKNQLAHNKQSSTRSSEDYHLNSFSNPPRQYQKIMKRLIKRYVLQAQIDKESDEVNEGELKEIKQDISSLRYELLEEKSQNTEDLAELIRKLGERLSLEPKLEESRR
row,IC50,SMILES
1,70.8 µM,CCCn1c(=N)n(CC(=O)c2ccc(Cl)cc2)c2ccccc21
2,17.8 µM,Cc1ccc(S(=O)(=O)n2c(N)nc3ccccc32)cc1
3,70.8 µM,Cc1cccc2sc(N(CCCN(C)C)C(=O)c3ccc(Cl)s3)nc12
4,31.6 µM,C/C(=N/OC(=O)c1c(-c2c(Cl)cccc2Cl)noc1C)c1cnccn1
5,79.4 µM,CCN(CC)CCNc1nc2cc(OC)c(OC)cc2c2nc(-c3ccccc3)nn12
6,8.91 µM,Cc1nnsc1C(=O)N/N=C/c1ccc2ccccc2c1O
7,44.7 µM,Cc1ccccc1Nc1nc(N)c2ccccc2n1
8,44.7 µM,CCOCCCNC(=S)N1CCCN(c2nc3cc(C)ccc3cc2C#N)CC1
9,2.82 µM,Cc1ccc(S(=O)(=O)NNC(=O)C2CCN(Cc3ccccc3)CC2)cc1
10,70.8 µM,COc1ccc(Nc2ccnc3ccccc23)cc1
11,79.4 µM,CC(C)NCC(O)Cn1c2c(c3ccccc31)CCc1c-2cnn1-c1ccccc1 (stereo unspecified)
12,0.07 µM,CC(C)[N+](C)(CCOC(=O)C1c2ccccc2Oc2ccccc21)C(C)C
13,44.7 µM,Cc1cc(Nc2cccc([N+](=O)[O-])c2)c2cccc(C)c2n1
14,44.7 µM,COc1ccccc1Nc1nc(N)nc(CSC(=S)N2CCCCC2C)n1 (stereo unspecified)
15,39.8 µM,S=c1[nH]nc(Cc2ccccc2)n1Cc1ccco1
16,44.7 µM,c1ccc(-c2nc(-c3ccccn3)nc(-c3ccccn3)n2)nc1
17,44.7 µM,CN(C)c1cc(NC(=O)CN2CCCC2)c2ccccc2n1
18,50.1 µM,CN(C)CCCN1c2ccccc2Sc2ccc(C(F)(F)F)cc21
19,50.1 µM,COC(=O)C(NC(=O)c1ccc(C)cc1)(Nc1cccc(C)n1)C(F)(F)F (stereo unspecified)
20,7.94 µM,CCN(CC)CCC/C(=N\O)C(O)(c1ccccc1)c1ccccc1
21,15.8 µM,COc1ccc2ccccc2c1CNC(C)CCc1ccccc1 (stereo unspecified)
22,1.78 µM,CN(C)CCOC(=O)C(c1ccccc1)C1(O)CCCC1 (stereo unspecified)

row,IC50,SMILES
1,70.8 µM,Cc1cccn2c(=O)c3cc(C(=O)NC(C)C)c(=N)n(Cc4ccncc4)c3nc12
2,63.1 µM,CCN(c1ccccc1)S(=O)(=O)c1cccc(C(=O)N2CCN(S(=O)(=O)c3ccccc3)CC2)c1
3,44.7 µM,CCN(CC)CCCNc1nc2ccccc2c2nc(-c3ccncc3)nn12
4,1.12 µM,COc1ccc(N2C(=O)CSC23C(=O)N2CCCc4cccc3c42)cc1 (stereo unspecified)
5,31.6 µM,CCOC(=O)c1[nH]c2ccc(F)cc2c1NC(=O)CN1CCN(C/C=C/c2ccccc2)CC1
6,50.1 µM,COc1cc2c(cc1O)CC[n+]1cc3c(OC)c(OC)ccc3cc1-2
7,79.4 µM,CCN(CC)CCNC(=O)c1nn(-c2ccc(C)cc2)c(=O)c2c1c1ccccc1n2C
8,50.1 µM,Oc1ccccc1Nc1nc(NCC2CCCO2)c2ccccc2n1 (stereo unspecified)
9,79.4 µM,CCN(CC)CCCNc1nc(-c2ccccc2)nc2ccccc12
10,39.8 µM,CC(C)c1ccc(OCC(O)Cn2cnc3ccccc32)cc1 (stereo unspecified)
11,79.4 µM,CCOC(=O)c1ccc(NC(=O)CCc2ccc(CC)o2)cc1
12,70.8 µM,CC(C)(C)NCc1cc(Br)ccc1OCc1cccs1
13,44.7 µM,COc1cc(/C=N/Nc2nncc3ccccc23)cc(OC)c1OC
14,79.4 µM,Cc1nnc(-c2ccccc2)c(=O)n1/N=C/c1c(O)ccc2ccccc12
15,10 µM,CN(C)C/C=C/C(O)(c1ccccc1)c1ccccc1
16,39.8 µM,COc1cc(/C=N/Nc2nc(N3CCCC3)nc(N3CCCC3)n2)ccc1OCc1ccccc1F
17,19.9 µM,COc1ccccc1C(=O)NCC1CCN(c2ccc(S(=O)(=O)N3CCOCC3)cc2)CC1
18,63.1 µM,CCOC(=O)c1cnc2c(Cl)cccc2c1NCCN(C)C
19,50.1 µM,Cc1cc(N=Nc2ccccc2)c(NCC(O)C(O)C(O)CO)cc1C (stereo unspecified)
20,1.41 µM,O=C(NNS(=O)(=O)c1ccc2ccccc2c1)C1CCN(Cc2ccccc2)CC1
21,50.1 µM,Nc1cccc2nc3ccccc3cc12
22,50.1 µM,CCc1ccc(N=C2N=C(N)c3ccccc32)cc1

row,IC50,SMILES
1,63.1 µM,CN1CCCC1CCNc1ccc2c(=O)c3ccccc3oc2c1 (stereo unspecified)
2,28.2 µM,CCC(C)N(CCNC(=O)CC1Oc2ccccc2NC1=O)C1CCCCC1 (stereo unspecified)
3,8.91 µM,CCN(CC)CC#CC(O)(c1ccccc1)c1ccccc1
4,70.8 µM,CCCCc1nc2ccccc2c(N)c1CCC (tested in a mixture with another compound)
5,70.8 µM,Cc1cccc(-c2nc(NCCCN(C)C)c3ccccc3n2)c1
6,70.8 µM,Cc1cccc(-c2nc(NCCCN3CCOCC3)c3ccccc3n2)c1
7,70.8 µM,c1ccc(CNc2c3ccccc3nc3ccccc23)cc1
8,70.8 µM,Cn1c(=O)c2c(nc(SCCN3CCCCC3)n2Cc2ccccc2)n(C)c1=O
9,14.1 µM,CCN(CC)CCC#CC(O)(c1ccccc1)c1ccccc1
10,44.7 µM,CCOC(=O)c1c(CNc2ccncc2)n(C)c2cc(Br)c(O)cc12
11,0.89 µM,CN(CCOC(=O)C1c2ccccc2Oc2ccccc21)C(C)(C)C
12,39.8 µM,CN(C)CCn1c(C(=O)Nc2ccccc2)cc2ccccc21
13,70.8 µM,Cc1c(CCCN)c2ccccc2n1Cc1ccccc1
14,50.1 µM,CN(C)CCN(C(=O)c1ccc2c(c1)OCCO2)c1nc2c(Cl)cccc2s1
15,79.4 µM,COc1ccc2nc(C)cc(Nc3ccc(N4CCN(C)CC4)cc3)c2c1
16,39.8 µM,CN(C)C(C)(C)C#CC(O)(c1ccccc1)c1ccccc1
17,50.1 µM,CCCc1cc(=S)n2c([nH]c3ccccc32)c1C#N
18,11.2 µM,CCN(CC)CCCOC(=O)C1(c2ccccc2)CCCC1
19,50.1 µM,O=[N+]([O-])c1cccc(OCCCN2CCC(Cc3ccccc3)CC2)c1
20,44.7 µM,CCN(CC)CC(=O)N1c2ccccc2Sc2ccc(Cl)cc21

# The remaining lines, values behind:
row,SMILES,IC50
1,COc1ccc(CCC(C)NC2C3CC4CC(C3)CC2C4)cc1 (stereo unspecified),44.7 µM
2,CC1CCCN1CC#CC(O)(c1ccccc1)c1ccccc1 (stereo unspecified),11.2 µM
3,Cc1cc(-n2cccn2)ccc1CN1CCN(CC(C)C)C(CCO)C1 (stereo unspecified),11.2 µM
4,O=C(CNCCC1=CCCCC1)Nc1ccc(N2CCCCCC2)cc1,70.8 µM
5,Cc1ccc(C2N(c3ccccc3)C(=S)N3CCCN23)cc1 (stereo unspecified),25.1 µM
6,O=c1cc(C(F)(F)F)[nH]c2c(C(F)(F)F)cccc12,25.1 µM
7,Cc1ccc(Oc2ccc(NC(=O)Cn3ccsc3=N)cc2)cc1,70.8 µM
8,c1ccc2c(c1)CCc1ccccc1C2=C1CCNCC1,28.2 µM
9,C[N+]1(C)CCCC(OC(=O)C(O)(c2ccccc2)c2ccccc2)C1 (stereo unspecified),0.89 µM
10,Cc1ccc(-c2cc(-c3ccc(C)cc3)[n+](-c3ccccc3)c(-c3ccc(C)cc3)c2)cc1,50.1 µM
11,CC(C)C(O)(C#CCN1CCCCC1)c1ccccc1 (stereo unspecified),11.2 µM
12,CN1CCCC(C#CC(O)(c2ccccc2)c2ccccc2)C1 (stereo unspecified),15.8 µM
13,CCCCCCCCCCn1ccc(=N)cc1,39.8 µM
14,CCOC(=O)N1CCC(N2CCN(CCC(C)C)C(CCO)C2)CC1 (stereo unspecified),14.1 µM
15,Cn1c(=O)[nH]c(=O)c2c1nc(N1CCCCCC1)n2CCN1CCCCCC1,39.8 µM
16,Cc1nc2c(o1)CCc1ccccc1C2N1CCN(C)CC1 (stereo unspecified),0.79 µM and 3.16 µM
17,C[N+]1(CC#CC(O)(c2ccccc2)c2ccccc2)CCCC1,2.24 µM
18,Cc1c(C(=O)OCCN2CCCCC2)oc2ccccc12,25.1 µM
19,O=C(OCCN1CCCCC1)C1(c2ccccc2)CCCC1,8.91 µM

row,SMILES,IC50
1,CCCCCCn1c2c(c(=N)c3c1CCC3)CCC2,79.4 µM
2,N#Cc1c(-n2cccc2/C=N/O)sc2c1CCCC2,39.8 µM
3,OC(Cn1c2ccccc2c2ccccc21)C[n+]1cccc2ccccc21 (stereo unspecified),35.5 µM
4,CC1(C(O)(C#CC[N+]2(C)CCCCC2)c2ccccc2)CCCC1 (stereo unspecified),0.14 µM
5,OC(C#CCN1CCCCCC1)(c1ccccc1)c1cccnc1 (stereo unspecified),39.8 µM
6,N#CCCN(CCN1CCCC1)S(=O)(=O)c1ccc(-c2ccc([N+](=O)[O-])cc2)cc1,63.1 µM
7,Cc1ccc2c(c1)NC(=O)C(CC(=O)Nc1ccc(CN3CCC(C)CC3)cc1)O2 (stereo unspecified),3.98 µM
8,S=C1N(c2ccccc2)C(c2ccc(Br)cc2)N2CCCN12 (stereo unspecified),17.8 µM
9,Cc1cc(C)c2nc(N3CCC(C(=O)NCCCN4CCCCC4)CC3)sc2c1,39.8 µM
10,Cc1ccc(OCCCCCCN2CCNCC2)c(Br)c1,79.4 µM
11,S=C1N(c2ccccc2)C(c2ccc(Cl)cc2)N2CCCN12 (stereo unspecified),17.8 µM
12,C[N+]12CCC(CC1)C(=C(c1ccccc1)c1ccccc1)C2,4.47 µM
13,C[N+]1(C)[C@@H]2CC[C@H]1CC(OC(=O)[C@@H](CO)c1ccccc1)C2 (stereo partly specified),0.02 µM
14,OC(C#CCN1CCCC1)(c1ccccc1)c1ccccc1,3.98 µM
15,Cc1ccccc1CCNCc1cc2cccc(C)c2[nH]c1=O,50.1 µM
16,CCOC(=O)N1CCN(S(=O)(=O)c2cc(Br)cnc2N)CC1,19.9 µM
17,CC(C)(C)NCc1cc(Br)ccc1OC1CCCC1,44.7 µM
18,C[N+]1(C)CCC(OC(=O)C(c2ccccc2)c2ccccc2)CC1,0.28 µM
19,O=C(NCC(=O)N(c1ccc2c(c1)OCCO2)C(C(=O)NC1CCCC1)c1ccco1)c1ccco1 (stereo unspecified),44.7 µM

row,SMILES,IC50
1,CC(=O)OCC[N+](C)(C)C,1.58 µM
2,Cc1ccc(OCCCCCCN2CCNCC2)cc1,79.4 µM
3,CCN1C(=O)/C(=C\N2CCCCCC2)SC1=S,14.1 µM
4,O=C1Nc2ccccc2OC1CC(=O)N1CCN(c2cccc(C(F)(F)F)c2)CC1 (stereo unspecified),79.4 µM
5,Cc1ccc(Sc2c([N+](=O)[O-])c(C)nn2C)cc1,35.5 µM
6,O=C1Nc2ccccc2/C1=N\N=C\C1=C(N2CCOCC2)C(=C\c2ccccc2)/CC1,39.8 µM
7,COc1ccc(C2NC(=O)NC(O)(C(F)(F)F)C2C(=O)c2ccc(C)cc2)cc1 (stereo unspecified),14.1 µM
8,CC1CCC(C(C)C)C(OCC[N+](C)(C)C)C1 (stereo unspecified),2.82 µM
9,CCCCn1c(-c2ccc([N+](=O)[O-])cc2)n[nH]c1=S,6.31 µM
10,CCC(CO)(C(=O)OC1CC2CCC(C1)N2C)c1ccccc1 (stereo unspecified),0.09 µM
11,C#CC[N+]1(C)[C@@H]2CC(OC(=O)C(CO)c3ccccc3)C[C@H]1C(O)C2 (stereo partly specified),3.55 µM
12,CC(C)(C)c1ccc(OCCCCCCN2CCNCC2)cc1,50.1 µM
13,C[n+]1ccccc1/C=C/c1ccc(F)c(F)c1,44.7 µM
14,CN1CCC(OC(c2ccccc2)c2ccccc2)CC1,15.8 µM
15,OC(CCN1CCCC1)(c1ccccc1)C1CCCCC1 (stereo unspecified),4.47 µM
16,COc1ccc2ccccc2c1CNCCc1ccccc1,50.1 µM
17,Cc1nnc(SCCn2c(N3CCN(C)CC3)nc3c2c(=O)[nH]c(=O)n3C)s1,50.1 µM
18,CCN(CC)CCCOC(=O)C(OC(C)C)(c1ccccc1)c1ccccc1,3.98 µM
19,OC(C#CCCN1CCCCC1)(c1ccccc1)C1CCCCC1 (stereo unspecified),3.55 µM
